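Values below derive from 48-hour exposures of cells grown in 96-well plates, with endpoints linearly interpolated between the two concentrations bracketing the appropriate inhibition level. The concentration for 50% growth inhibition is given as GI50.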 The source made the active and inactive calls. No stated cut-off is given here; in the data, active = GI50 up to about 1.1 µM and inactive = higher.
How the values were obtained:
Test in all cases: inhibition of tumour cell growth, NCI panel, 48 h
KM12 = system: KM12
SF-268 = system: SF-268
M14 = system: M14
A549 = system: A549
Hs-578T = system: Hs-578T
HT-29 = system: HT-29
TK-10 = system: TK-10
HOP-62 = system: HOP-62
SK-MEL-2 = system: SK-MEL-2
SNB-75 = system: SNB-75
SNB-19 = system: SNB-19
HCT-116 = system: HCT-116
BT-549 = system: BT-549
HL-60 = system: HL-60
SK-MEL-5 = system: SK-MEL-5
CAKI-1 = system: CAKI-1
UO-31 = system: UO-31
A498 = system: A498
HOP-92 = system: HOP-92
SR = system: SR

| SMILES | GI50 (KM12) | GI50 (SF-268) | GI50 (M14) | GI50 (A549) | GI50 (Hs-578T) | GI50 (HT-29) | GI50 (TK-10) | GI50 (HOP-62) | GI50 (SK-MEL-2) | GI50 (SNB-75) | GI50 (SNB-19) | GI50 (HCT-116) | GI50 (BT-549) | GI50 (HL-60) | GI50 (SK-MEL-5) | GI50 (CAKI-1) | GI50 (UO-31) | GI50 (A498) | GI50 (HOP-92) | GI50 (SR) |
| --- | --- | --- | --- | --- | --- | --- | --- | --- | --- | --- | --- | --- | --- | --- | --- | --- | --- | --- | --- | --- |
| Cc1ccc2c(O)cc(-c3cc4ccccc4s3)nc2n1 | > 73.1 µM (inactive) | 43.2 µM (inactive) | > 100 µM (inactive) | > 100 µM (inactive) | > 41.6 µM (inactive) | > 84.7 µM (inactive) | > 95.9 µM (inactive) | 31.7 µM (inactive) | > 100 µM (inactive) | 17.5 µM (inactive) | > 100 µM (inactive) | > 100 µM (inactive) | > 100 µM (inactive) | > 100 µM (inactive) | 74.5 µM (inactive) | 55 µM (inactive) | 0.0353 µM (active) |  |  |  |
| CCSc1nc(=S)n(-c2ccccc2)c(C)c1C(C)=O | > 100 µM (inactive) | > 100 µM (inactive) | > 100 µM (inactive) | > 100 µM (inactive) | > 100 µM (inactive) | > 100 µM (inactive) | > 100 µM (inactive) | > 100 µM (inactive) | > 100 µM (inactive) | > 100 µM (inactive) | > 94.6 µM (inactive) | > 100 µM (inactive) |  | > 100 µM (inactive) | > 100 µM (inactive) | > 100 µM (inactive) | > 100 µM (inactive) | > 100 µM (inactive) | > 100 µM (inactive) | > 100 µM (inactive) |
| Cc1ccc(CCCC(=O)O)cc1C | > 100 µM (inactive) | 63.7 µM (inactive) | > 100 µM (inactive) | > 100 µM (inactive) |  | > 100 µM (inactive) | > 100 µM (inactive) | > 100 µM (inactive) | > 100 µM (inactive) | 39.1 µM (inactive) | > 100 µM (inactive) | > 100 µM (inactive) | > 100 µM (inactive) | > 100 µM (inactive) | > 100 µM (inactive) | > 100 µM (inactive) | > 100 µM (inactive) |  | > 100 µM (inactive) | > 100 µM (inactive) |
| COC(=O)[C@H](Cc1ccccc1)NP(=O)(O)OCC1OC(n2cc(C)c(=O)[nH]c2=O)CC1N=[N+]=[N-] (some centres not stated) | > 100 µM (inactive) | > 100 µM (inactive) | > 100 µM (inactive) | > 100 µM (inactive) | > 100 µM (inactive) | > 100 µM (inactive) | > 100 µM (inactive) | > 100 µM (inactive) | > 100 µM (inactive) | > 100 µM (inactive) | > 100 µM (inactive) | > 100 µM (inactive) |  | > 100 µM (inactive) | > 100 µM (inactive) | > 100 µM (inactive) | > 100 µM (inactive) | > 100 µM (inactive) | > 100 µM (inactive) | > 100 µM (inactive) |
| CCn1c(O)c(C(=O)NC(C)c2ccc([N+](=O)[O-])cc2)c(=O)n(CC)c1=S (configuration not stated) | 2.01 µM (inactive) | 3.92 µM (inactive) | 2.6 µM (inactive) | 1.52 µM (inactive) | 2.52 µM (inactive) | 2.34 µM (inactive) | 4.06 µM (inactive) | 2.31 µM (inactive) | 1.02 µM (active) | 2.16 µM (inactive) | 1.93 µM (inactive) | 1.64 µM (inactive) | 2.21 µM (inactive) | 2.28 µM (inactive) | 3.13 µM (inactive) | 2.55 µM (inactive) | 1.92 µM (inactive) |  | 2.75 µM (inactive) |  |
| CN1CC2=C(N=C(S)NC2c2ccccc2Cl)/C(=C/c2ccccc2Cl)C1 (configuration not stated) | 56.1 µM (inactive) | 95.9 µM (inactive) | 38.9 µM (inactive) | 30.5 µM (inactive) | > 100 µM (inactive) | 30.8 µM (inactive) | 71.3 µM (inactive) | > 100 µM (inactive) | 69 µM (inactive) | 3.33 µM (inactive) | > 100 µM (inactive) | 30.9 µM (inactive) |  | 21.8 µM (inactive) | 12.2 µM (inactive) | > 100 µM (inactive) | 25.6 µM (inactive) | 77.3 µM (inactive) | 3.81 µM (inactive) | 17.7 µM (inactive) |
| COC(=O)CCn1cnc2c(SC)ncnc21 | > 100 µM (inactive) | > 100 µM (inactive) | > 100 µM (inactive) | > 100 µM (inactive) | > 100 µM (inactive) | > 100 µM (inactive) | > 100 µM (inactive) | > 100 µM (inactive) |  | > 100 µM (inactive) | > 100 µM (inactive) | > 100 µM (inactive) |  | > 100 µM (inactive) | > 100 µM (inactive) | > 100 µM (inactive) | > 100 µM (inactive) | > 100 µM (inactive) | > 100 µM (inactive) | > 100 µM (inactive) |
| COc1cc(C2c3c(ccc4ccccc34)C(=O)C3CCC(=O)N32)cc(OC)c1O (configuration not stated) | > 25 µM (inactive) |  | > 25 µM (inactive) | > 25 µM (inactive) |  | > 25 µM (inactive) |  | > 25 µM (inactive) | > 25 µM (inactive) | > 25 µM (inactive) | > 25 µM (inactive) | > 25 µM (inactive) | > 25 µM (inactive) | > 25 µM (inactive) |  |  | > 25 µM (inactive) | > 25 µM (inactive) | > 25 µM (inactive) | > 25 µM (inactive) |
| COc1ccccc1N1CCN(S(=O)(=O)c2ccc(Cl)cc2)C1=N | 82.4 µM (inactive) | > 100 µM (inactive) | 26.2 µM (inactive) | 34.2 µM (inactive) | 78 µM (inactive) |  | 60.7 µM (inactive) | > 100 µM (inactive) | 57.4 µM (inactive) | > 100 µM (inactive) | 51.3 µM (inactive) | 27.9 µM (inactive) | > 100 µM (inactive) |  | 56.2 µM (inactive) | > 100 µM (inactive) | 33.3 µM (inactive) | > 100 µM (inactive) |  |  |
| COC(=O)N[C@@H]1C[C@H]2CC[C@]1(O[Si](C(C)C)(C(C)C)C(C)C)C(=O)C2 | 18.2 µM (inactive) | 12.9 µM (inactive) | 18.5 µM (inactive) | 14.3 µM (inactive) | 10.3 µM (inactive) | 19.1 µM (inactive) | 14.7 µM (inactive) | 21.4 µM (inactive) | 17.4 µM (inactive) | 20 µM (inactive) | 18.1 µM (inactive) | 18.5 µM (inactive) |  | 16.9 µM (inactive) | 16.4 µM (inactive) | 23.9 µM (inactive) | 14.1 µM (inactive) | 21.4 µM (inactive) | 17.5 µM (inactive) | 6.93 µM (inactive) |
| COc1ccc2c(c1)CC[C@@H]1[C@@H]2CC[C@]2(C)C(=O)/C(=C/c3ccc(OC)c(OC)c3)C[C@@H]12 | > 100 µM (inactive) |  | > 100 µM (inactive) | > 100 µM (inactive) |  |  | > 100 µM (inactive) | > 100 µM (inactive) | > 100 µM (inactive) | > 100 µM (inactive) | > 100 µM (inactive) | 65.9 µM (inactive) | > 100 µM (inactive) | > 100 µM (inactive) | > 100 µM (inactive) | > 100 µM (inactive) | > 100 µM (inactive) | > 100 µM (inactive) | 97.5 µM (inactive) | 5.07 µM (inactive) |
| Cn1/c(=N\c2ccc(Cl)cc2)sc2ccccc21 | 21.9 µM (inactive) | > 100 µM (inactive) |  | 32.5 µM (inactive) | 62.4 µM (inactive) | 32.7 µM (inactive) | 43 µM (inactive) | 71.3 µM (inactive) | 39.4 µM (inactive) | 45.8 µM (inactive) | > 100 µM (inactive) | 37 µM (inactive) |  | 44.9 µM (inactive) | 27.7 µM (inactive) | 34 µM (inactive) | 26.1 µM (inactive) | 55.2 µM (inactive) | 23.3 µM (inactive) | > 100 µM (inactive) |
| COc1nc2c(c(=O)[nH]1)N=C(c1ccccc1)CC(c1ccccc1)N2 (configuration not stated) | 30.7 µM (inactive) |  | 34.3 µM (inactive) | 55.6 µM (inactive) |  | 44.7 µM (inactive) |  | 95.1 µM (inactive) | 29.6 µM (inactive) | 15.3 µM (inactive) | > 100 µM (inactive) | 33.8 µM (inactive) | 37.4 µM (inactive) | > 10 µM (inactive) | 38.3 µM (inactive) | 91 µM (inactive) | 39.6 µM (inactive) | > 100 µM (inactive) | 80.9 µM (inactive) | > 10 µM (inactive) |
| Oc1ccccc1C1=NOC(c2ccc(C(F)(F)F)cc2)C1 (configuration not stated) | > 50 µM (inactive) | > 50 µM (inactive) | > 50 µM (inactive) | > 50 µM (inactive) | > 50 µM (inactive) | > 50 µM (inactive) |  | > 50 µM (inactive) | > 46.1 µM (inactive) | > 50 µM (inactive) | > 50 µM (inactive) | > 50 µM (inactive) | > 50 µM (inactive) | > 50 µM (inactive) | > 50 µM (inactive) | > 50 µM (inactive) |  | > 50 µM (inactive) |  |  |
| O=Cc1coc2ccccc2c1=O | 24.2 µM (inactive) | 20.8 µM (inactive) | 17.9 µM (inactive) | 25.1 µM (inactive) | 18.2 µM (inactive) | 20.7 µM (inactive) | 17.7 µM (inactive) | 19.1 µM (inactive) |  | < 0.01 µM (active) | 24.6 µM (inactive) | 16.5 µM (inactive) | 15.6 µM (inactive) | 18.6 µM (inactive) | 17.8 µM (inactive) | 19.2 µM (inactive) | 11.9 µM (inactive) | 44.2 µM (inactive) |  |  |
| C=C1CC/C=C(\C)C(=O)C[C@@H]2[C@@H]1CC2(C)C [BUDDLEDIN C] | 15 µM (inactive) | 14.1 µM (inactive) | 3.69 µM (inactive) | 13.9 µM (inactive) |  | 2.44 µM (inactive) | 3.13 µM (inactive) | 15.3 µM (inactive) | 17.5 µM (inactive) | 10.6 µM (inactive) | 12.6 µM (inactive) | 1.17 µM (inactive) | 2.45 µM (inactive) | 0.129 µM (active) | 2.84 µM (inactive) | 1.38 µM (inactive) | 2.62 µM (inactive) | 8.59 µM (inactive) | 1.97 µM (inactive) | 0.0578 µM (active) |
